# According to US9688630B2, “3,3′-disubstituted indolines as inhibitors of cholesterol ester transfer protein” (Merck Sharp & Dohme Corp., priority 2013, dated 2017):
# Key:
# recombinant CETP = target: T1, recombinant CETP (Homo sapiens, UniProt P11597); experiment: RTA assay using recombinant CETP (2% RTA); assay type: biochemical; details: 2% human serum
# T1 sequence (P11597 18-493): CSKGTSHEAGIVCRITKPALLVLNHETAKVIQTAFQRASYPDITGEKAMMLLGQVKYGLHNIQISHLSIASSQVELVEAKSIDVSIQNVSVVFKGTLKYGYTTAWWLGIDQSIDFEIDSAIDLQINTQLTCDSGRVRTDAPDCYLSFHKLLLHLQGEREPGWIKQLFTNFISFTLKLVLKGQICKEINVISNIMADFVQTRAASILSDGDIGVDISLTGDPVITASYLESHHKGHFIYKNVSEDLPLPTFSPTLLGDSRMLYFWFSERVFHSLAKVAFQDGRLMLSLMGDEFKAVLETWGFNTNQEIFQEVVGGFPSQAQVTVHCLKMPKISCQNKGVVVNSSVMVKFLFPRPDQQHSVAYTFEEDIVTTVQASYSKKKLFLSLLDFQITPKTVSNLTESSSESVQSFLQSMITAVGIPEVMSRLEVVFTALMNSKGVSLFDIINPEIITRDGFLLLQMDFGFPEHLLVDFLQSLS
# Procedure: (§1) In Vitro Radioactive Assays of CETP-Catalyzed CE and TG Transfer (RTA Assay)
# (§2) Reagents and sources are: [3H] cholesteryl oleate (GE #TRK.886), [3H] Triolein (Perkin-Elmer NET-431), Butylated hydroxyl toluene (Aldrich, #D4740-4), DOPC (Sigma, #P6354), Sodium Bromide (Fisher scientific #S255-500), PEG 8000 (Fisher, #BP233-1), and human HDL (Intracel Corp #RP-036).
# (§3) An in vitro assay for determining IC50's to identify compounds that inhibit CETP transfer activity is performed based on a modification of a published method (Morton and Zilversmit, (1981) A plasma inhibitor of triglyceride and cholesteryl ester transfer activities, J. Biol. Chem. 256(23), 11992-11995). The ability of inhibitors to alter CETP activity is performed using two different assays: one using recombinant CETP and one using an endogenous plasma source of CETP. Both assays measure the transfer of [3H] cholesteryl oleate or [3H] triolein from exogenous LDL to HDL.
# (§4) Radiolabeled donor particles are generated by first combining 100 μl of 200 μM butylated hydroxyl toluene in CHCl3, 216 μL of 21.57 mM DOPC in EtOH, and either 500 μCi [3H]-triolein (Perkin Elmer #NET-431) or 500 μCi [3H]-cholesteryl oleate (GE #TRK886) in a glass tube. Reagents are mixed, dried under nitrogen, and then resuspended in 2 mL of 50 mM Tris, 27 μM EDTA at pH 7.4. After a brief vortex, the solution is sonicated until clear and mixed with 20 mL of fresh human serum. The mixture is incubated overnight at 37° C. The [3H] labeled LDL substrate is separated at 1.063 g/ml density by sequential ultracentrifugal flotation in NaBr according to the method of Havel, Eder, et al., 1955, and Chapman, Goldstein, et al., 1981. Once isolated the particles are dialyzed 3× in CETP buffer (50 mM Tris, pH 7.4, 100 mM NaCl, 1 mM EDTA). Human HDL is purchased from Intracel and used as the acceptor particles.
# (§5) Transfer assays are performed in a 96-well v-bottom polypropylene plate. For the RTA using recombinant CETP (2% RTA), an assay cocktail is prepared with the final concentrations 128 μg/mL HDL, 20 nM rCETP, 2% human serum, and 1×CETP buffer. 1 μL of each test compound diluted in DMSO is added to 47 μL of assay cocktail per well and incubated at 37° C. for 1 hour. To initiate the transfer reaction, 2 μL radiolabeled LDL is added. After an additional 60 min of incubation at 37° C., the transfer action is terminated by precipitation of LDL with an equal volume of 20% W/V PEG 8000. The plates are centrifuged at 2000 rpm for 30 minutes at 4° C. A 40 μL aliquot of the HDL-containing supernatant is transferred to a Packard Optiplate™ with 200 μL of MicroScint™ 20. After mixing, plates are counted by liquid scintillation. Counts present in the supernatant for blanks (wells containing only HDL acceptor, CETP buffer and DMSO) are subtracted from those containing test compounds and used to correct for non-specific transfer.
# (§6) Comparison of the counts of samples with inhibitors to an uninhibited (DMSO only) positive control yield a percent inhibition. A plot of percent inhibition vs. log of inhibitor concentration, fit to a Sigmoidal 4 parameter equation is used to calculate IC50.
# [1] = target: T2, endogenous CETP from human serum (Homo sapiens, UniProt P11597); experiment: RTA assay using endogenous CETP from serum (95% RTA); assay type: biochemical; details: 95% human serum
# T2 construct: yielding a concentration of approximately 15 nM endogenous CETP in the assay; from tissue; host or cells: human serum
# T2 sequence (P11597 18-493): T1 sequence (P11597 18-493)
# Procedure: as §1, §2, §3, §4, §5
# For the transfer assay using endogenous CETP from serum (95% RTA), the same procedure is used except that human serum is added such that a final concentration of serum of 95% of the total assay volume is achieved, yielding a concentration of approximately 15 nM endogenous CETP in the assay. This is then combined with HDL and CETP buffer and the reaction proceeds as above and is terminated as described.
# as §6
# [2] = cited from earlier work
# [3] = Phase III outcomes trial, cited from earlier work
# [4] = patients on baseline statin therapy, compared with patients treated with just a statin
SMILES,IC50 (recombinant CETP),IC50 [1],other results
CC1(O)CN(c2cccc(C3(Cc4cccc(OC(F)(F)F)c4)CN(C[C@@H](O)C(F)(F)F)c4ccccc43)c2)C1 (stereo partly shown) [Example 33],1230 nM,4380 nM,
O[C@H](CN1CC(Cc2cccc(OC(F)(F)F)c2)(c2cccc(N3CC(F)C3)c2)c2ccccc21)C(F)(F)F (stereo partly shown) [Example 34],59 nM,319 nM,
O[C@H](CN1CC(Cc2cccc(OC(F)(F)F)c2)(c2cccc(N3CCC(F)(F)C3)c2)c2ccccc21)C(F)(F)F (stereo partly shown) [Example 35],98 nM,533 nM,
CO[C@@H]1CCN(c2cccc(C3(Cc4cccc(OC(F)(F)F)c4)CN(C[C@@H](O)C(F)(F)F)c4ccccc43)c2)C1 (stereo partly shown) [Example 36],115 nM,780 nM,
CO[C@H]1CCN(c2cccc(C3(Cc4cccc(OC(F)(F)F)c4)CN(C[C@@H](O)C(F)(F)F)c4ccccc43)c2)C1 (stereo partly shown) [Example 37],77 nM,395 nM,
C[C@H]1CN(c2cccc(C3(Cc4cccc(OC(F)(F)F)c4)CN(C[C@@H](O)C(F)(F)F)c4ccccc43)c2)CCO1 (stereo partly shown) [Example 38],117 nM,674 nM,
O[C@H](CN1CC(Cc2cccc(OC(F)(F)F)c2)(c2cccc(N3CCC(F)(F)CC3)c2)c2ccccc21)C(F)(F)F (stereo partly shown) [Example 39],164 nM,1080 nM,
O[C@H](CN1CC(Cc2cccc(OC(F)(F)F)c2)(c2cccc(N3CCCC(F)(F)C3)c2)c2ccccc21)C(F)(F)F (stereo partly shown) [Example 40],119 nM,791 nM,
O[C@H](CN1CC(Cc2cccc(OC(F)(F)F)c2)(c2cccc(N3CC[C@H](F)C3)c2)c2ccccc21)C(F)(F)F (stereo partly shown) [Example 41],72 nM,498 nM,
O[C@H](CN1CC(Cc2cccc(OC(F)(F)F)c2)(c2cccc(N3CC[C@@H](F)C3)c2)c2ccccc21)C(F)(F)F (stereo partly shown) [Example 42],40 nM,766 nM,
C[C@@H]1CN(c2cccc(C3(Cc4cccc(OC(F)(F)F)c4)CN(C[C@@H](O)C(F)(F)F)c4ccccc43)c2)CCO1 (stereo partly shown) [Example 43],97 nM,932 nM,
OC1CCN(c2cccc(C3(Cc4cccc(OC(F)(F)F)c4)CN(C[C@@H](O)C(F)(F)F)c4ccccc43)c2)C1 (stereo partly shown) [Example 44],489 nM,2040 nM,
"N#Cc1cccc(CC2(c3cccc(OC(F)(F)F)c3)CN(C[C@@H](O)C(F)(F)F)c3ccccc32)c1 (stereo partly drawn) [Example 45, 3-((1-((R)-3,3,3-trifluoro-2-hydroxypropyl)-3-(3-(trifluoromethoxy)phenyl)indolin-3-yl)methyl)benzonitrile]",171 nM,917 nM,
"CS(=O)(=O)c1cccc(CC2(c3cccc(OC(F)(F)F)c3)CN(C[C@@H](O)C(F)(F)F)c3ccccc32)c1 (stereo partly drawn) [Example 46, (2R)-1,1,1-trifluoro-3-(3-(3-(methylsulfonyl)benzyl)-3-(3-(trifluoromethoxy)phenyl)indolin-1-yl)propan-2-ol]",264 nM,8960 nM,
"O[C@H](CN1CC(Cc2cccc(-c3cccc(OC(F)(F)F)c3)c2)(c2cccc(OC(F)(F)F)c2)c2ccccc21)C(F)(F)F (stereo partly drawn) [Example 47, (2R)-1,1,1-trifluoro-3-(3-((3′-(trifluoromethoxy)-[1,1′-biphenyl]-3-yl)methyl)-3-(3-(trifluoromethoxy)phenyl)indolin-1-yl)propan-2-ol]",720 nM,2880 nM,
"O[C@H](CN1CC(Cc2cccc(N3CC(F)(F)C3)c2)(c2cccc(OC(F)(F)F)c2)c2ccccc21)C(F)(F)F (stereo partly drawn) [Example 48, (2R)-3-(3-(3-(3,3-difluoroazetidin-1-yl)benzyl)-3-(3-(trifluoromethoxy)phenyl)indolin-1-yl)-1,1,1-trifluoropropan-2-ol]",83 nM,246 nM,
CO[C@H]1CCN(c2cccc(CC3(c4cccc(OC(F)(F)F)c4)CN(C[C@@H](O)C(F)(F)F)c4ccccc43)c2)C1 (stereo partly shown) [Example 49],197 nM,2100 nM,
C[C@H]1CN(c2cccc(CC3(c4cccc(OC(F)(F)F)c4)CN(C[C@@H](O)C(F)(F)F)c4ccccc43)c2)CCO1 (stereo partly shown) [Example 50],474 nM,4930 nM,
C[C@@H]1CN(c2cccc(CC3(c4cccc(OC(F)(F)F)c4)CN(C[C@@H](O)C(F)(F)F)c4ccccc43)c2)CCO1 (stereo partly shown) [Example 51],1610 nM,1720 nM,
O[C@H](CN1CC(Cc2cccc(N3CC(F)C3)c2)(c2cccc(OC(F)(F)F)c2)c2ccccc21)C(F)(F)F (stereo partly shown) [Example 52],447 nM,5840 nM,
CC1(O)CN(c2cccc(CC3(c4cccc(OC(F)(F)F)c4)CN(C[C@@H](O)C(F)(F)F)c4ccccc43)c2)C1 (stereo partly shown) [Example 53],680 nM,8050 nM,
O[C@H](CN1CC(Cc2cccc(N3CCC(F)(F)C3)c2)(c2cccc(OC(F)(F)F)c2)c2ccccc21)C(F)(F)F (stereo partly shown) [Example 54],510 nM,3650 nM,
O[C@H](CN1CC(Cc2cccc(N3CC4(COC4)C3)c2)(c2cccc(OC(F)(F)F)c2)c2ccccc21)C(F)(F)F (stereo partly shown) [Example 55],98 nM,533 nM,
O[C@H](CN1CC(Cc2cccc(N3CCC(F)(F)CC3)c2)(c2cccc(OC(F)(F)F)c2)c2ccccc21)C(F)(F)F (stereo partly shown) [Example 56],413 nM,6940 nM,
O[C@H](CN1CC(Cc2cccc(N3CC[C@H](F)C3)c2)(c2cccc(OC(F)(F)F)c2)c2ccccc21)C(F)(F)F (stereo partly shown) [Example 57],350 nM,3680 nM,
O[C@H](CN1CC(Cc2cccc(N3CC[C@@H](F)C3)c2)(c2cccc(OC(F)(F)F)c2)c2ccccc21)C(F)(F)F (stereo partly shown) [Example 58],171 nM,1410 nM,
O[C@H](CN1CC(Cc2cccc(N3CCCC(F)(F)C3)c2)(c2cccc(OC(F)(F)F)c2)c2ccccc21)C(F)(F)F (stereo partly shown) [Example 59],198 nM,1420 nM,
"COC(=O)c1cccc(CC2(c3cccc(OC(F)(F)F)c3)CN(C[C@@H](O)C(F)(F)F)c3ccccc32)c1 (stereo partly drawn) [Example 60, Methyl 3-((1-((R)-3,3,3-trifluoro-2-hydroxypropyl)-3-(3-(trifluoromethoxy)phenyl)indolin-3-yl)methyl)benzoate]",668 nM,937 nM,
COc1cc(F)c(C(C)C)cc1-c1ccc(C(F)(F)F)cc1CN1C(=O)O[C@H](c2cc(C(F)(F)F)cc(C(F)(F)F)c2)[C@@H]1C [anacetrapib],,,"decrease of LDL-C [2, 4]: 40%; increase of HDL-C [2, 4]: 138%; increase in mortality ([2]; patients treated with anacetrapib, DEFINE trial): unlikely"
CCC(CC)CC1(C(=O)Nc2ccccc2SC(=O)C(C)C)CCCCC1 [dalcetrapib],,,clinical benefit (interim data) ([3]; terminated early): did not show a clinical benefit; safety issues [3]: no safety issues detected
